According to publication PMC8284440, “Toward New Transmission-Blocking Combination Therapies: Pharmacokinetics of 10-Amino-Artemisinins and 11-Aza-Artemisinin and Comparison with Dihydroartemisinin and Artemether” (Antimicrobial Agents and Chemotherapy, 2021):

What was measured:
[1] = Metabolic stability in pooled human liver microsomes; parameters: CLint scaled: dose or concentration left out as unconfirmed; conditions: for CLint scaled / half-life at 0.4 mM: human
Method: (ii) Metabolic stability in liver microsomes. The metabolic stability assay was performed in duplicate using 96-deepwell plates. Each compound (0.4 mM) was incubated individually in mouse, rat, and pooled human liver microsomes (0.4 mg/ml) at 37°C in the presence and absence of the cofactor NADPH (1 mM). An aliquot was taken at 0, 5, 10, 30, and 60 min, and the reaction was quenched by adding 300 μl of ice-cold acetonitrile containing the internal standard carbamazepine (0.0236 μg/ml) ([88]). The test compounds in the supernatant were analyzed by means of LC-MS/MS as described in “Sample analysis” below. The normalized data for each sample were used to calculate the in vitro half-life, intrinsic clearance rate, and hepatic extraction ratio from the results of this assay using the following equations ([88]).Equation 1. Normalized area. (1) Normalized area=(Peak area of sample at time point/Peak area of internal standard) Equation 2. Percent parent remaining. (2) % Parent=Normalized peak area of sample at time point/Normalized peak area of sample at t=0×100 Equation 3. Calculated t1/2. (3) t1/2=−0.693/λ where λ is the slope of the ln (% parent remaining) versus time curve of the compound.Equation 4. CLint. (4) CLint=[0.693/t1/2(min)]×[Volume of incubation (μl)/Microsomal protein (μg)] Equation 5. Hepatic extraction ratio. (5) EH=fu×CLint/QH + fu×CLint
(§1) Sample extraction. […] The organic layer was then transferred and evaporated under a gentle stream of nitrogen at room temperature for 30 min. The dried samples were reconstituted in mobile phase, and a 5 μl sample was injected for LC-MS/MS analysis. The only exception was the arylurea 10, for which no liquid-liquid extraction was conducted; instead, the 200 μl acetonitrile solution was evaporated under a gentle stream of nitrogen at room temperature. The dried sample was reconstituted in the mobile phase, and a 5 μl sample was injected for LC-MS/MS analysis. The plasma samples for each compound from the in vivo studies were extracted by mixing 350 μl ethyl acetate with 15 μl of plasma sample and 35 μl of universal buffer containing internal standard at pH 8. The samples were vortexed for 1 min and centrifuged for 5 min, and the organic layer was then transferred and evaporated under a gentle stream of nitrogen at room temperature for 30 min. The dried samples were each reconstituted in the mobile phase, and a 5 μl sample was injected for LC-MS/MS analysis.
LC-MS/MS analysis. For all the artemisinins except the arylurea 10, gradient chromatography was performed on a Phenomenex (Torrance, CA, USA) Luna PFP(2) analytical column (100 Å, 5 μm, 2 by 50 mm) and an AB Sciex API 5500 mass spectrometer which was operated at unit resolution in the multiple reaction monitoring (MRM) mode. The HPLC method used was a gradient method with 5 mM ammonium acetate and 0.1% acetic acid in water as the aqueous phase and a mixture of acetonitrile and methanol (1:1 vol/vol) containing 5% of the aqueous phase as the organic phase ([89]). The arylurea 10 was analyzed using a Phenomenex Gemini NX-C18 (5 μm, 2.1 mm by 50 mm) column with an AB Sciex 3200 QTRAP mass spectrometer operated at unit resolution in the MRM mode. The HPLC method used was a gradient method with 5 mM ammonium acetate and 0.1% acetic acid in water as the aqueous phase and a mixture of acetonitrile and methanol (1:1 vol/vol). The transitions of the molecular ions were monitored, as listed in Table S8 in the supporting information. The calibration range was between 0.002 μg/ml and 6.250 μg/ml. Data acquisition and evaluation were performed using Analyst 1.6.2 software (Applied Biosystems, Foster City, CA, USA). The formation of the putative metabolite DHA from the amino-artemisinins and the metabolite M1 of artemisone were evaluated in these mice PK studies; the MRM transitions of DHA and M1 (Table S8) were thus included in the LC-MS/MS assays.

[2] = Pharmacokinetics in mice, intravenous administration; format: in vivo, male C57/BL6 mice; conditions: for AUC: 0 h to last, parent; for V: volume of distribution during elimination phase; for half-life / CLint scaled / clearance: male; for half-life: C57/BL6, iv, mouse plasma; for CLint scaled / clearance: C57/BL6, mouse, plasma, iv; for clearance: read-out: CLtot; for DHA detected as a metabolite: mouse PK studies, i.v. and p.o., LC-MS/MS
Method: (i) Animals. Healthy male C57/BL6 mice each weighing approximately 25 g were used. The mice maintained at the University of Cape Town animal facility were housed in 27 by 21 by 18 cm cages, under controlled environmental conditions at 22 ± 2°C and a 12-h light/dark cycle. Humidity was monitored and ranged between 55 and 70%. Food and water were available ad libitum. Mice were acclimatized to their environment for 7 days before experiments were initiated.
(iii) Intravenous drug administration. For the intravenous formulations, each of artemether, the amino-artemisinins 5 to 10, and 11-aza-artemisinin 11 (2.5 mg) was dissolved in 1 ml DMSO/PEG/PPG (1:3:6, vol/vol). DMSO was added first, followed by PEG and then PPG. The resulting solutions in the mixture of DMSO, PEG, and PPG (1:3:6, vol/vol) were administered intravenously at a dose of 10 mg/kg (n = 3) via injection into the dorsal penile vein. Mice were anesthetized with an intraperitoneal injection of a saline ketamine/xylazine solution. This consisted of 1 ml ketamine (100 mg/ml), 0.5 ml xylazine (20 mg/ml), and 8.5 ml PBS solution to make a total volume of 10 ml. Dosage of anesthetic preparation for mice was […]; this amounts to a dose of 80 mg/kg ketamine and 10 mg/kg xylazine. The total volume of administration was dose adjusted to 10 mg/kg with an approximate volume of 80 μl, according to the weight of each animal on the morning of dosing. Blood samples for the amino-artemisinins 5 to 8 and 10 were collected via tail-bleeding predose and at 0.08, 0.25, 0.5, 1, 2, and 4 h, and blood samples for the phenylurea 9 and 11-aza-artemisinin 11 were collected at 0.08, 0.5, 1, 2, 4, 8, and 24 h postdose. Samples were all placed in 0.5 ml lithium heparin microvials to prevent blood coagulation. The samples were immediately centrifuged at 5,590 × g for 5 min and the plasma was transferred to new microvials. The plasma samples were stored at −80°C.
as §1
LC-MS/MS analysis. For all the artemisinins except the arylurea 10, gradient chromatography was performed on a Phenomenex (Torrance, CA, USA) Luna PFP(2) analytical column (100 Å, 5 μm, 2 by 50 mm) and an AB Sciex API 5500 mass spectrometer which was operated at unit resolution in the multiple reaction monitoring (MRM) mode. The HPLC method used was a gradient method with 5 mM ammonium acetate and 0.1% acetic acid in water as the aqueous phase and a mixture of acetonitrile and methanol (1:1 vol/vol) containing 5% of the aqueous phase as the organic phase ([89]). The arylurea 10 was analyzed using a Phenomenex Gemini NX-C18 (5 μm, 2.1 mm by 50 mm) column with an AB Sciex 3200 QTRAP mass spectrometer operated at unit resolution in the MRM mode. The HPLC method used was a gradient method with 5 mM ammonium acetate and 0.1% acetic acid in water as the aqueous phase and a mixture of acetonitrile and methanol (1:1 vol/vol).

[3] = 10 mg/kg, i.v. 10 mg/kg, total plasma clearance
[4] = metabolite formed from i.v. artemiside 5, 10 mg/kg

SMILES | Hepatic extraction ratio EH Human ([1]; human liver microsomes) | CLint scaled ([1]; pooled liver microsomes) [mL/min/kg] | half-life at 0.4 mM ([1]; pooled liver microsomes) [h] | AUC of metabolite ([2]; metabolite formed from i.v. artemether 3, 10 mg/kg) [min/µmol/L] | AUC ([2]; i.v. 10 mg/kg) [min/µmol/L] | V ([2]; i.v. 10 mg/kg) [L/kg] | half-life ([2]; i.v. 10 mg/kg) [h] | CLint scaled ([2]; 10 mg/kg) [mL/min/kg] | clearance [2, 3] [mL/min/kg] | AUC of metabolite [2, 4] [min/µmol/L] | DHA detected as a metabolite [2] | CLtot ([2]; i.v. 10 mg/kg, total plasma clearance, 10 mg/kg) [mL/min/kg] | Stability in HLM ([1]; human liver microsomes) | DHA detected as a metabolite ([2]; listed as 11-Aza-artemisinin) | DHA detected as a metabolite ([2]; listed as 11-aza-artemisinin) | half-life at 0.4 mM ([1]; microsomes) [h] | AUC of metabolite ([2]; metabolite formed from i.v. artemisone, 10 mg/kg) [min/µmol/L]
C[C@H]1[C@@H](O)O[C@@H]2O[C@@]3(C)CC[C@H]4[C@H](C)CC[C@@H]1[C@@]24OO3 [DHA 2, dihydroartemisinin] | 0.7 | 41.5 | 0.862 | 155 ± 17 | – | – | – | – | – | – | – | – | – | – | – | – | –
C[C@H]1[C@H](N2CCS(=O)(=O)CC2)O[C@@H]2O[C@@]3(C)CC[C@H]4[C@H](C)CC[C@@H]1[C@@]24OO3 [Artemisone 6, artemisone] | 0.9 | 243 | < 0.167 | – | 577.5 ± 30 | 1.9 ± 0.1 | 0.5 ± 0.03 | 302 | 42.3 ± 2.1 | 28.9 ± 1 | not detected | – | – | – | – | – | –
C[C@H]1[C@H](N2CCSCC2)O[C@@H]2O[C@@]3(C)CC[C@H]4[C@H](C)CC[C@@H]1[C@@]24OO3 [Artemiside 5, artemiside] | 1.0 | 451 | < 0.167 | – | 184.9 ± 43 | 24.3 ± 9.3 | 1.8 ± 0.5 | 674 | 130 | – | not detected | 155.0 ± 46.4 | – | – | – | – | –
C[C@@H]1CC[C@H]2[C@@H](C)C(=O)N[C@@H]3O[C@@]4(C)CC[C@@H]1[C@]32OO4 [11-Aza-artemisinin 11, 11-aza-artemisinin] | – | – | 1 | – | 462.7 ± 117 | 19.4 ± 7.5 | 3.1 ± 0.8 | 577 | 75 ± 8.9 | – | – | – | stable throughout the experiment | could not be detected | not detected | – | –
C[C@H]1[C@H](NS(N)(=O)=O)O[C@@H]2O[C@@]3(C)CC[C@H]4[C@H](C)CC[C@@H]1[C@@]24OO3 [Sulfamide 7] | 0.2 | 5.6 | > 2.5 | – | 864.1 ± 213 | 1.63 ± 0.4 | 0.6 ± 0.1 | 189 | 32.2 ± 6.2 | – | not detected | – | – | – | – | – | –
CO[C@H]1O[C@@H]2O[C@@]3(C)CC[C@H]4[C@H](C)CC[C@@H]([C@H]1C)[C@@]24OO3 [Artemether 3, artemether] | 0.9 | 172 | – | – | 304.4 ± 80 | 14.1 ± 1.3 | 1.4 ± 0.2 | 855 | 120 ± 39 | – | – | – | – | – | – | 0.208 | –
C[C@H]1[C@H](N2CCN(C(=O)Nc3ccc(F)cc3)CC2)O[C@@H]2O[C@@]3(C)CC[C@H]4[C@H](C)CC[C@@H]1[C@@]24OO3 [Arylurea 10] | 0.6 | 531 | < 0.167 | – | 315.9 ± 33 | 6.92 ± 2.9 | 1.3 ± 0.3 | 2940 | 58.9 ± 3.5 | – | – | – | – | – | – | – | –
C[C@H]1[C@H](N2C=CS(=O)(=O)CC2)O[C@@H]2O[C@@]3(C)CC[C@H]4[C@H](C)CC[C@@H]1[C@@]24OO3 [M1 12] | – | – | > 2.5 | – | – | – | – | – | – | 13.8 ± 9 | – | – | – | – | – | – | 60.6 ± 36
